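48-hour exposure; five concentrations; linearly interpolated endpoints. The concentration for 50% growth inhibition is given as GI50.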 Calls of active or inactive are those of the source. Cut-off read from the data, not from the text of the source: active = GI50 up to about 1.1 µM and inactive = higher.
Columns and labels:
Test in all cases: NCI-60 cell line screen, 48 h
SF-539 = system: SF-539
KM12 = system: KM12
OVCAR-4 = system: OVCAR-4
NCI-H23 = system: NCI-H23
CAKI-1 = system: CAKI-1
HCC 2998 = system: HCC 2998
UO-31 = system: UO-31
TK-10 = system: TK-10
HCT-116 = system: HCT-116
U-251 = system: U-251
NCI-H460 = system: NCI-H460
OVCAR-8 = system: OVCAR-8
OVCAR-3 = system: OVCAR-3
SK-MEL-28 = system: SK-MEL-28
DU-145 = system: DU-145
NCI/ADR-RES = system: NCI/ADR-RES
MDA-MB-231 = system: MDA-MB-231
NCI-H226 = system: NCI-H226
SNB-75 = system: SNB-75
SK-MEL-2 = system: SK-MEL-2

Measured: GI50

NC(=O)NC1C(c2ccccc2)=C1c1ccccc1
inactive: SF-539 15.4 µM | KM12 19.2 µM | OVCAR-4 15.3 µM | NCI-H23 21.2 µM | CAKI-1 18.9 µM | HCC 2998 16.5 µM | UO-31 13.6 µM | TK-10 18 µM | HCT-116 15.7 µM | U-251 13.9 µM | NCI-H460 15.5 µM | OVCAR-8 12.5 µM | OVCAR-3 28.9 µM | SK-MEL-28 17.1 µM | DU-145 41.3 µM | NCI/ADR-RES 10.5 µM | MDA-MB-231 12.6 µM | NCI-H226 5.08 µM

O=C(C=P(c1ccccc1)(c1ccccc1)c1ccccc1)c1ccc(-c2ccc(F)cc2F)cc1
inactive: SF-539 2.88 µM | KM12 3.42 µM | OVCAR-4 2.9 µM | NCI-H23 3.22 µM | CAKI-1 2.12 µM | HCC 2998 2.08 µM | UO-31 1.77 µM | TK-10 2.2 µM | HCT-116 2.87 µM | U-251 3.41 µM | NCI-H460 1.86 µM | OVCAR-3 1.95 µM | SK-MEL-28 2.95 µM | DU-145 3.1 µM | NCI/ADR-RES 3.09 µM | MDA-MB-231 2.1 µM | NCI-H226 2.43 µM

NC(CC(=O)Nc1cc(C(F)(F)F)ccc1Cl)=NO
inactive: SF-539 > 100 µM | KM12 > 100 µM | OVCAR-4 > 100 µM | NCI-H23 > 100 µM | CAKI-1 > 100 µM | UO-31 > 100 µM | SNB-75 > 100 µM | TK-10 > 100 µM | HCT-116 > 100 µM | U-251 > 100 µM | NCI-H460 > 100 µM | SK-MEL-2 > 100 µM | OVCAR-8 > 100 µM | OVCAR-3 > 100 µM | SK-MEL-28 > 100 µM | DU-145 > 100 µM | NCI/ADR-RES > 100 µM | MDA-MB-231 > 100 µM | NCI-H226 > 100 µM

CCCCN/N=N/c1cn(C2OC(CO)C(O)C2O)c(=O)[nH]c1=O (stereo unspecified)
inactive: SF-539 > 100 µM | KM12 > 100 µM | OVCAR-4 > 100 µM | NCI-H23 > 100 µM | CAKI-1 > 100 µM | HCC 2998 > 100 µM | TK-10 > 100 µM | HCT-116 > 100 µM | NCI-H460 > 100 µM | SK-MEL-2 > 100 µM | OVCAR-8 > 100 µM | OVCAR-3 > 100 µM | SK-MEL-28 > 100 µM | DU-145 > 100 µM | NCI/ADR-RES > 100 µM | MDA-MB-231 > 100 µM | NCI-H226 > 100 µM

COc1ccc(CCN2CCOCC2)cc1
inactive: SF-539 > 100 µM | KM12 > 100 µM | NCI-H23 > 100 µM | CAKI-1 > 100 µM | HCC 2998 > 100 µM | UO-31 > 100 µM | TK-10 > 100 µM | HCT-116 > 100 µM | U-251 > 100 µM | NCI-H460 > 100 µM | SK-MEL-2 > 100 µM | OVCAR-3 41.8 µM | SK-MEL-28 > 100 µM | DU-145 > 100 µM | NCI/ADR-RES > 100 µM | MDA-MB-231 > 100 µM | NCI-H226 > 100 µM

C(=N\Nc1nnc(-c2nnc(N/N=C/c3ccccc3)o2)o1)/c1ccccc1
inactive: SF-539 > 10 µM | KM12 > 10 µM | OVCAR-4 > 10 µM | NCI-H23 > 10 µM | CAKI-1 > 10 µM | HCC 2998 > 10 µM | UO-31 > 10 µM | TK-10 > 10 µM | HCT-116 > 10 µM | U-251 > 10 µM | NCI-H460 > 10 µM | OVCAR-8 > 10 µM | OVCAR-3 > 10 µM | SK-MEL-28 > 10 µM | DU-145 > 10 µM | NCI/ADR-RES > 10 µM | MDA-MB-231 > 10 µM | NCI-H226 > 10 µM

O=C(O)CN1CCN2CCCCCCCCN(CC1)CCN(CC(=O)O)CC2
inactive: SF-539 > 100 µM | KM12 75.2 µM | OVCAR-4 > 100 µM | CAKI-1 > 100 µM | UO-31 > 100 µM | SNB-75 21.9 µM | TK-10 > 100 µM | HCT-116 > 100 µM | U-251 > 100 µM | NCI-H460 > 100 µM | SK-MEL-2 > 100 µM | OVCAR-8 > 100 µM | OVCAR-3 > 100 µM | SK-MEL-28 > 100 µM | DU-145 > 100 µM | NCI/ADR-RES > 100 µM | MDA-MB-231 > 100 µM | NCI-H226 > 100 µM

O=C1C=C(c2c(-c3ccccc3)[nH]c3ccccc23)C(=O)N1c1ccccc1
inactive: SF-539 8.24 µM | NCI-H23 10.7 µM | CAKI-1 5.53 µM | HCC 2998 7.94 µM | UO-31 13.9 µM | TK-10 12.7 µM | HCT-116 6.49 µM | U-251 13.5 µM | NCI-H460 14.6 µM | SK-MEL-2 12.5 µM | OVCAR-8 4.46 µM | OVCAR-3 4.41 µM | SK-MEL-28 13.3 µM | DU-145 3.52 µM | NCI/ADR-RES 8.45 µM | MDA-MB-231 11.3 µM | NCI-H226 22.6 µM

From ChEMBL document CHEMBL1201862, “PubChem BioAssay data set” (2004)
